Measured values taken from the supplement of paper PMC5752671.

Tests used:
Test in all cases: IC50 (cell viability) (log10 M)
Details in all cases: 4 days
MOLM/13 = system: MOLM/13
Outline: (§1)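 Fourteen leukemia cell lines were plated on extracellular-matrix-coated 384-well plates. Drugs were added robotically the next day at eight concentrations spanning 4–5 logs within 10^–12–10^–4 M, tailored per drug, in duplicate. Viability was read with CellTiter-Glo after 4 days. IC50 is the concentration where a fitted four-parameter curve crosses 50% viability, in log10 M; where that is not reached, the highest tested concentration is entered.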

OCI-AML2 = system: OCI-AML2
Outline: as §1

KASUMI1 = system: KASUMI1
Outline: as §1

NB4 = system: NB4
Outline: as §1

SKM1 = system: SKM1
Outline: as §1

THP-1 = system: THP-1
Outline: as §1

OCI-AML3 = system: OCI-AML3
Outline: as §1

MOLM/16 = system: MOLM/16
Outline: as §1

PL-21 = system: PL-21
Outline: as §1

KG1 = system: KG1
Outline: as §1

Compound | IC50 (log10 M) (MOLM/13) | IC50 (log10 M) (OCI-AML2) | IC50 (log10 M) (KASUMI1) | IC50 (log10 M) (NB4) | IC50 (log10 M) (SKM1) | IC50 (log10 M) (THP-1) | IC50 (log10 M) (OCI-AML3) | IC50 (log10 M) (MOLM/16) | IC50 (log10 M) (PL-21) | IC50 (log10 M) (KG1)
CC(=O)c1c(C)c2cnc(Nc3ccc(N4CCNCC4)cn3)nc2n(C2CCCC2)c1=O | -6.46 | -6.91 | -5.47 | -6.88 | -6.36 | -5.16 | -6.18 | -5.87 | -6.75 | -5.08
Cc1ccc([N+](=O)[O-])cc1S(=O)(=O)N(C)/N=C/c1cnc2ccc(Br)cn12 [PIK-75] | -7.66 | -7.35 | -7.18 | -7.01 | -7.21 | -7.08 | -7.02 | -7.89 | -7.36 | -7.25
Nc1nc2[nH]cc(CCc3ccc(C(=O)N[C@@H](CCC(=O)O)C(=O)O)cc3)c2c(=O)[nH]1 [Pemetrexed] | > -5 | > -5 | > -5 | > -5 | > -5 | > -5 | > -5 | > -5 | > -5 | > -5
COC(=O)c1ccc2c(c1)NC(=O)/C2=C(\Nc1ccc(N(C)C(=O)CN2CCN(C)CC2)cc1)c1ccccc1 [BIBF1120] | -6.53 | > -5 | > -5 | > -5 | > -5 | > -5 | > -5 | > -5 | > -5 | -5.46
O=C(NOC[C@H](O)CO)c1ccc(F)c(F)c1Nc1ccc(I)cc1F | -6.01 | < -8.34 | -7.93 | -7.96 | < -8.34 | -5.4 | < -8.34 | -6.6 | < -8.34 | -7.31
CN[C@@H]1C[C@H]2O[C@@](C)([C@@H]1OC)n1c3ccccc3c3c4c(c5c6ccccc6n2c5c31)C(=O)NC4 [Staurosporine] | -9.32 | -9.49 | -7.76 | -7.85 | -8.41 | -7.64 | -7.84 | -8.09 | -8.44 | -7.72
Cn1c(=O)n(-c2ccc(C(C)(C)C#N)cc2)c2c3cc(-c4cnc5ccccc5c4)ccc3ncc21 [BEZ-235] | -7.34 | -7.06 | -7.17 | -6.69 | -7.5 | -6.87 | -7.11 | -7.64 | -7.32 | -6.98
CN1CC[C@@H](NC(=O)Nc2ccc(C#N)cc2)C[C@@H]1c1nc2ccccc2[nH]1 | > -5 | > -5 | > -5 | > -5 | > -5 | > -5 | > -5 | > -5 | > -5 | > -5
C=CCNC1=C2C[C@@H](C)C[C@H](OC)[C@H](O)[C@@H](C)/C=C(\C)[C@H](OC(N)=O)[C@@H](OC)/C=C\C=C(/C)C(=O)NC(=CC1=O)C2=O [Tanespimycin] | -7.55 | -7.81 | -6.43 | -7.5 | -7 | -6.24 | -6.64 | – | -6.55 | -5.84
Cc1cc(Nc2cc(N3CCN(C)CC3)nc(Sc3ccc(NC(=O)C4CC4)cc3)n2)n[nH]1 [Tozasertib] | < -8.48 | -8.4 | -6.82 | -6.61 | -6.61 | -6.93 | -6.91 | < -8.48 | -5.8 | -7.15
CC1(C)CCC(C)(C)c2cc(NC(=O)c3ccc(C(=O)O)cc3)ccc21 [Tamibarotene] | > -5 | -5.38 | > -5 | > -5 | > -5 | > -5 | -8.07 | > -5 | > -5 | > -5
Nc1ncn([C@@H]2O[C@H](CO)[C@@H](O)[C@H]2O)c(=O)n1 [Azacitidine] | -6.31 | -5.78 | -5.32 | -6.37 | -5.76 | -5.1 | -5.44 | -6.22 | -5.42 | -5.17
CC[C@H](CO)Nc1nc(NCc2ccccc2)c2ncn(C(C)C)c2n1 [R-roscovitine] | > -5 | > -5 | > -5 | > -5 | > -5 | > -5 | > -5 | -5 | > -5 | > -5
CC[C@@H]1C(=O)N(C)c2cnc(Nc3ccc(C(=O)NC4CCN(C)CC4)cc3OC)nc2N1C1CCCC1 [BI-2536] | < -8.34 | < -8.34 | < -8.34 | < -8.34 | < -8.34 | < -8.34 | < -8.34 | < -8.34 | < -8.34 | < -8.34
O=C(CCCCCCC(=O)Nc1ccccc1)NO [Vorinostat] | -5.96 | -6.33 | -6.07 | -6.22 | -5.97 | -5.88 | -5.87 | -6.51 | -5.94 | -6.01
NC(=O)Nc1sc(-c2ccc(F)cc2)cc1C(N)=O [TPCA-1] | -5.52 | -5.45 | -5.74 | -5.05 | -5.51 | – | -5.43 | -6.29 | -5.46 | -5.87
Oc1cccc(-c2nc(N3CCOCC3)c3oc4ncccc4c3n2)c1 [PI-103] | -6.02 | -6.15 | -6.95 | -5.51 | -6.33 | -6.15 | -6.57 | – | -5.33 | -5.82
CN(C)C1CCN(C(=O)c2ccc(NC(=O)Nc3ccc(-c4nc(N5CCOCC5)nc(N5CCOCC5)n4)cc3)cc2)CC1 [PKI-587] | -7.6 | -7.38 | -6.27 | -6.65 | -7.5 | -6.85 | – | -6.61 | -7.52 | -5.83
CC(C)CC(=O)Nc1n[nH]c2c1CN(C(=O)C1CCN(C)CC1)C2(C)C | -7.75 | – | -6.34 | – | -7.49 | -6.18 | – | – | -6.5 | -5.76
COc1cc2c(Oc3ccc4[nH]c(C)cc4c3F)ncnc2cc1OCCCN1CCCC1 [AZD2171] | > -5 | > -5 | > -5 | > -5 | > -5 | > -5 | > -5 | > -5 | > -5 | –
NC(=O)Nc1cc(-c2cccc(F)c2)sc1C(=O)N[C@H]1CCCNC1 [AZD7762] | < -8.48 | -7.93 | -7.28 | -7.74 | – | -7.65 | -7.08 | -7.3 | -7.69 | -6.83
